Measurements from patent US20240239790A1, “7-Morpholino-1,6-Naphthyridin-5-yl Derivatives and Pharmaceutical Compositions Thereof Useful as DNA-PK Inhibitor” (adMare Therapeutics Society, priority 2021, published 2024).
pEC50, pIC50: −log10 of the molar value. Like-named read-outs stand apart in the source and are kept apart here.

Experiments:
DNA-PK = target: T1, DNA-PK (Homo sapiens, UniProt P78527); test: DNA-PK Assay for Biochemical Enzymatic Inhibition (ADP Glo Kinase assay); details: DNA-PK enzyme
T1 construct: purchased Invitrogen PR9107A
Summary of the method: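 Human DNA-PK (25 ng) preincubated 15 min with compounds (ten three-fold dilutions) in HEPES pH 7.5, MgCl2, KCl, calf thymus DNA buffer, then substrate 434.4 μM and ATP 64.4 μM (final) for 60 min at room temperature. ADP-Glo luminescence; percent inhibition fitted by four-parameter regression for IC50.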

[1] = target: T2, DNA-PK phosphorylation at Serine 2056 (Homo sapiens, UniProt P78527); test: Cellular Assay for Inhibition of DNA-PK Phosphorylation at Serine 2056 in FaDu cells (sandwich ELISA, neocarzinostatin); type: cell-based; details: pSer2056 DNA-PK
T2 construct: FaDu cells were purchased from ATCC; host or cells: FaDu
Summary of the method: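 FaDu cells pre-treated with compound (0.3% DMSO) for 1 h, then neocarzinostatin 1 μg/mL final added for 2 h to induce DSBs. Protein-normalised lysates read by sandwich ELISA for total and pSer2056 DNA-PK; % inhibition normalised between DMSO and NCS controls, IC50 from variable-slope log(inhibitor) fit.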

[2] = system: pDNA-PK induction in HCT116 tumour spheroids; test: Multicellular tumour spheroid + radiation, pDNA-PK (ser2056) inhibition, immunohistochemical endpoint, HCT116; type: cell-based; details: Homo sapiens, 20 Gy, 20% O2
Summary of the method: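 HCT116 spheroids (~0.5 mm) in MEM/10% FBS, 20% O2, 37° C., pre-incubated 1 h with compound (10 or 5 μM down to 3.5 nM), irradiated 20 Gy, then 2 h further with compound. Cryosections immunostained for pDNA-PK ser2056; EC50 is concentration halving radiation-induced pDNA-PK.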

[3] = Hepatocyte Stability Assay, mouse hepatocytes; type: in vitro ADME
Description: (§1) Cryopreserved mouse hepatocytes were obtained from a pool of 10 or more male CD-1 mice. Cryopreserved human hepatocytes were obtained from a pool of 10 or more donors of mixed gender. Final hepatocyte density was 0.7 million viable cells per mL and test compound concentration was 1 uM with a maximum of 0.01% DMSO. Cryopreserved hepatocytes were thawed, washed, and resuspended in Krebs-Heinslet buffer (pH 7.3). The reaction was initiated by adding the test compound into cell suspension and incubated for 0, […], 1, 1.5, and 2 h, respectively, at 37° C./5% C02. The reaction was stopped by adding acetonitrile into the incubation mixture. Samples were then mixed, transferred completely to another 96-well plate, and centrifuged. Supernatants were used for HPLC-MS/MS analysis. […] Peak areas corresponding to the test compound were recorded.

[4] = Hepatocyte Stability Assay, human hepatocytes; type: in vitro ADME
Description: as §1

[5] = Microsomal Stability Assay, mouse liver microsomes; type: in vitro ADME; details: for microsomal CLint at 0.1 uM: male, CD-1, pH 7.4
Description: (§2) Samples were then mixed and centrifuged. Supernatants were used for HPLC-MS/MS analysis. […] Peak areas corresponding to the test compound were recorded.

[6] = Microsomal Stability Assay, human liver microsomes; type: in vitro ADME; details: for microsomal CLint at 0.1 uM: both sexes, pH 7.4
Description: as §2

[7] = neocarzinostatin 1 μg/mL, Table 1
[8] = HCT-116, 2 hours following radiation, Example 9 Study 2, read-out: Spheroid Cell line: HCT116 Immunohistochemical endpoint pDNA-PK inhibition EC50
[9] = HCT-116, Spheroid, Cell Line: HCT115 (so in the source), 2 hours following radiation, Example 7, read-out: EC50, Immunohistochemical endpoint, pDNA-PK inhibition
[10] = mouse liver microsomes 0.1 mg/mL, 0.1 uM compound
[11] = human liver microsomes 0.1 mg/mL, 0.1 uM compound
[12] = mouse liver microsomes, Example 11
[13] = human liver microsomes, Example 11
[14] = HCT-116, 2 h, spheroids, Example 8, read-out: Cell line: HCT116 Immunohistochemical endpoint pDNA-PK inhibition EC50

SMILES	pIC50 (DNA-PK; Table 1)	pIC50 [1, 7]	pEC50 [2, 8]	pEC50 [2, 9]	microsomal CLint at 0.1 uM [5, 10] [µL/min/mg]	Microsomal Stability Mouse % rem. 60 min ([5]; mouse liver microsomes)	microsomal CLint at 0.1 uM [6, 11] [µL/min/mg]	Microsomal Stability Human % rem. 60 min ([6]; human liver microsomes)	further results
O=S(=O)(Nc1cnc2cc(N3CCOCC3)nc(O[C@H]3CC[C@@H](Nc4ncccn4)CC3)c2c1)C1CC1 [Compound 186, N-(7-morpholino-5-(((1s,4s)-4-(pyrimidin-2-ylamino)cyclohexyl)oxy)-1,6-naphthyridin-3-yl)cyclopropanesulfonamide]	9.00 to 9.30	> 7.00	5.00 to 6.00	5.00 to 6.00	< 116	G (% remaining = 50-75%)	> 116	F (% remaining = 25-50%)	–
CN(C)C(=O)COc1cnc(N[C@H]2CC[C@@H](Oc3nc(N4CCOCC4)cc4ncc(O)cc34)CC2)nc1 [LFA113, 2-[2-[[4-[(3-Hydroxy-7-morpholino-1,6-naphthyridin-5-yl)oxy]cyclohexyl]amino]pyrimidin-5-yl]oxy-N,N-dimethyl-acetamide]	–	–	–	–	–	–	–	–	pIC50 (DNA-PK; Table 2): > 9.30; pIC50 ([1]; Table 2): > 7.00; microsomal CLint at 0.1 uM [5, 12]: < 116 µL/min/mg; Microsomal Stability Mouse % rem. 60 min [5, 12]: F (% remaining = 25-50%); microsomal CLint at 0.1 uM [6, 13]: < 116 µL/min/mg; Microsomal Stability Human % rem. 60 min [6, 13]: H (% remaining = 75-100%)
Cn1cc([C@H]2CC[C@@H](Oc3nc(N4CCOCC4)cc4ncc(OCCO)cc34)CC2)cn1 [Compound 5, 2-((5-(((1s,4s)-4-(1-methyl-1H-pyrazol-4-yl)cyclohexyl)oxy)-7-morpholino-1,6-naphthyridin-3-yl)oxy)ethan-1-ol]	8.00 to 9.00	4.52 to 5.00	5.00 to 6.00	5.00 to 6.00	> 116	E (% remaining = 0-25%)	–	–	pEC50 [2, 14]: 5.00 to 6.00
CN(C)C(=O)COc1cnc(N[C@H]2CC[C@@H](Oc3nc(N4CCOCC4)cc4ncc(N)cc34)CC2)nc1 [LFA111, 2-[2-[[4-[(3-Amino-7-morpholino-1,6-naphthyridin-5-yl)oxy]cyclohexyl]amino]pyrimidin-5-yl]oxy-N,N-dimethyl-acetamide]	–	–	–	–	–	–	–	–	pIC50 (DNA-PK; Table 2): 9.00 to 9.30; pIC50 ([1]; Table 2): 6.00 to 7.00; microsomal CLint at 0.1 uM [5, 12]: < 116 µL/min/mg; Microsomal Stability Mouse % rem. 60 min [5, 12]: F (% remaining = 25-50%); microsomal CLint at 0.1 uM [6, 13]: < 116 µL/min/mg; Microsomal Stability Human % rem. 60 min [6, 13]: G (% remaining = 50-75%)
CC(=O)NC(=O)c1cnc2cc(N3CCOCC3)nc(O[C@H]3CC[C@@H](n4ccnc4)CC3)c2c1 [Compound 167, 5-(((1s,4s)-4-(1H-imidazol-1-yl)cyclohexyl)oxy)-N-acetyl-7-morpholino-1,6-naphthyridine-3-carboxamide]	8.00 to 9.00	6.00 to 7.00	4.00 to 5.00	4.00 to 5.00	> 116	E (% remaining = 0-25%)	–	–	pEC50 [2, 14]: 4.00 to 5.00
CN(C)C(=O)COc1cnc(C(=O)N[C@H]2CC[C@@H](Oc3nc(N4CCOCC4)cc4ncccc34)CC2)nc1 [Compound 125]	9.00 to 9.30	6.00 to 7.00	5.00 to 6.00	5.00 to 6.00	< 116	H (% remaining = 75-100%)	< 116	H (% remaining = 75-100%)	–
CONC(=O)c1cnc2cc(N3CCOCC3)nc(O[C@H]3CC[C@@H](n4ccnc4)CC3)c2c1 [Compound 171, 5-(((1s,4s)-4-(1H-imidazol-1-yl)cyclohexyl)oxy)-N-methoxy-7-morpholino-1,6-naphthyridine-3-carboxamide]	8.00 to 9.00	5.00 to 6.00	5.00 to 6.00	5.00 to 6.00	< 116	G (% remaining = 50-75%)	–	–	pEC50 [2, 14]: 5.00 to 6.00
CN(C)C(=O)COc1cnc(N[C@H]2CC[C@@H](Oc3nc(N4CCOCC4)cc4ncc(NS(C)(=O)=O)cc34)CC2)nc1 [LFA012, 2-[2-[[4-[[3-(Methanesulfonamido)-7-morpholino-1,6-naphthyridin-5-yl]oxy]cyclohexyl]amino]pyrimidin-5-yl]oxy-N,N′-dimethyl-acetamide]	–	–	–	–	–	–	–	–	pIC50 (DNA-PK; Table 2): > 9.30; pIC50 ([1]; Table 2): 6.00 to 7.00; Microsomal Stability Mouse % rem. 60 min [5, 12]: H (% remaining = 75-100%); Microsomal Stability Mouse Clint [5, 12]: A (Clint < 116 uL/min/mg); Microsomal Stability Human % rem. 60 min [6, 13]: H (% remaining = 75-100%); Microsomal Stability Human Clint [6, 13]: A (Clint < 116 uL/min/mg)
CON(C)C(=O)COc1cnc(N[C@H]2CC[C@@H](Oc3nc(N4CCOCC4)cc4ncccc34)CC2)nc1 [Compound 58, N-Methoxy-N-methyl-2-((2-(((1s,4s)-4-((7-morpholino-1,6-naphthyridin-5-yl)oxy)cyclohexyl)amino)pyrimidin-5-yl)oxy)acetamide]	> 9.30	6.00 to 7.00	6.00 to 6.30	6.00 to 6.30	> 116	E (% remaining = 0-25%)	–	–	–

Further lines, with some results ahead:

pIC50 (DNA-PK; Table 1)	pIC50 [1, 7]	pEC50 [2, 8]	pEC50 [2, 9]	microsomal CLint at 0.1 uM [5, 10] [µL/min/mg]	Microsomal Stability Mouse % rem. 60 min ([5]; mouse liver microsomes)	microsomal CLint at 0.1 uM [6, 11] [µL/min/mg]	Microsomal Stability Human % rem. 60 min ([6]; human liver microsomes)	SMILES	further results
> 9.30	6.00 to 7.00	5.00 to 6.00	–	–	–	–	–	O=C(COc1cnc(N[C@H]2CC[C@@H](Oc3nc(N4CCOCC4)cc4ncccc34)CC2)nc1)N1CC(F)C1 [Compound 76, 1-(3-Fluoroazetidin-1-yl)-2-((2-(((1s,4s)-4-((7-morpholino-1,6-naphthyridin-5-yl)oxy)cyclohexyl)amino)pyrimidin-5-yl)oxy)ethan-1-one]	hepatocyte CLint at 1 uM ([3]; male, CD-1, cryopreserved hepatocytes, pH 7.3, mouse hepatocytes 0.7 million cells per mL, 1 uM compound): > 8.2 µL/min/1e6 cells; Hepatocyte Stability Mouse % rem. 120 min ([3]; mouse hepatocytes, 120 min): F (% remaining = 25-50%); hepatocyte CLint at 1 uM ([4]; both sexes, cryopreserved hepatocytes, pH 7.3, human hepatocytes 0.7 million cells per mL, 1 uM compound): < 8.2 µL/min/1e6 cells; Hepatocyte Stability Human % rem. 120 min ([4]; human hepatocytes, 120 min): G (% remaining = 50-75%)
> 9.30	> 7.00	6.30 to 8.00	6.00 to 6.30	< 116	G (% remaining = 50-75%)	> 116	E (% remaining = 0-25%)	CS(=O)(=O)NCCOc1cnc(N[C@H]2CC[C@@H](Oc3nc(N4CCOCC4)cc4ncccc34)CC2)nc1 [Compound 67]	–
> 9.30	6.00 to 7.00	6.00 to 6.30	6.00 to 6.30	> 116	E (% remaining = 0-25%)	> 116	E (% remaining = 0-25%)	CN(C)C(=O)COc1ccnc(N[C@H]2CC[C@@H](Oc3nc(N4CCOCC4)cc4ncccc34)CC2)n1 [Compound 56, N,N-dimethyl-2-((2-(((1s,4s)-4-((7-morpholino-1,6-naphthyridin-5-yl)oxy)cyclohexyl)amino)pyrimidin-4-yl)oxy)acetamide]	–
> 9.30	6.00 to 7.00	–	–	> 116	E (% remaining = 0-25%)	> 116	F (% remaining = 25-50%)	CN(C)C(=O)COc1ccc(N[C@H]2CC[C@@H](Oc3nc(N4CCOCC4)cc4ncccc34)CC2)nc1 [Compound 55, N,N-dimethyl-2-((6-(((1s,4s)-4-((7-morpholino-1,6-naphthyridin-5-yl)oxy)cyclohexyl)amino)pyridin-3-yl)oxy)acetamide]	–
> 9.30	> 7.00	5.00 to 6.00	5.00 to 6.00	> 116	F (% remaining = 25-50%)	> 116	F (% remaining = 25-50%)	c1cnc2cc(N3CCOCC3)nc(O[C@H]3CC[C@@H](Nc4ncc(OCCN5CCNCC5)cn4)CC3)c2c1 [Compound 70, N-((1s,4s)-4-((7-Morpholino-1,6-naphthyridin-5-yl)oxy)cyclohexyl)-5-(2-(piperazin-1-yl)ethoxy)pyrimidin-2-amine]	–
